# How the values were obtained:
# Type in all cases: in vitro ADME
# [1] = target: T1, UGT1A7 (Homo sapiens, UniProt Q9HAW7); test: SAHA glucuronidation, wild-type UGT1A7
# T1 sequence (Q9HAW7 26-530): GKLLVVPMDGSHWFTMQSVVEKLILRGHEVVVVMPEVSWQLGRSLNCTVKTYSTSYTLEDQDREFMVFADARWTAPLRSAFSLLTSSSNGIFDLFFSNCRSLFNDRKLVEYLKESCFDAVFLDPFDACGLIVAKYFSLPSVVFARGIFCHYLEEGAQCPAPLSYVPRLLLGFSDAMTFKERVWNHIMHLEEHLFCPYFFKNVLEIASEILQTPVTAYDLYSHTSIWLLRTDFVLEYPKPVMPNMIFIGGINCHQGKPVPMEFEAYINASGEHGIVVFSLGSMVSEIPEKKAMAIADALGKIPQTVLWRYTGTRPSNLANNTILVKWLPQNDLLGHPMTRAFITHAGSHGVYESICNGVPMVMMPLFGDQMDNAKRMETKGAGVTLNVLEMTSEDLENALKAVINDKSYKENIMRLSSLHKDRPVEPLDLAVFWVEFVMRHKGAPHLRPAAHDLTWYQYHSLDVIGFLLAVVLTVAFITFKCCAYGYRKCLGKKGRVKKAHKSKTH
# [2] = target: T2, UGT1A8 (Homo sapiens, UniProt Q9HAW9); test: SAHA glucuronidation, wild-type UGT1A8
# T2 sequence (Q9HAW9 26-530): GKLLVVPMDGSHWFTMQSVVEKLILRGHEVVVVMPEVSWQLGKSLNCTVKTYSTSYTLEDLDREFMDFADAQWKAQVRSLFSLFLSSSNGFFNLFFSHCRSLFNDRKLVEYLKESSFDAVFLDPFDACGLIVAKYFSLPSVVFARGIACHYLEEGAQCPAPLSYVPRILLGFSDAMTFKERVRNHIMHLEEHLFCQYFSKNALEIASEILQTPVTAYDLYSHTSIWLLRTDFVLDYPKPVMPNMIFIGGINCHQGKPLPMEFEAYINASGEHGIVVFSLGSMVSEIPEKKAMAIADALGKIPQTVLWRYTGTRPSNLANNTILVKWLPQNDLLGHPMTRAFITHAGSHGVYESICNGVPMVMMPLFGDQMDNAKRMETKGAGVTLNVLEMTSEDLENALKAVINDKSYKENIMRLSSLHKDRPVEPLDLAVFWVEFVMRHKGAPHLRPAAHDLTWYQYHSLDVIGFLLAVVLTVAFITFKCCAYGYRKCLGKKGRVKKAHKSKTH
# [3] = SAHA glucuronidation in human colon homogenate; conditions: 200 μg protein
# [4] = target: T3, UGT1A10 (Homo sapiens, UniProt Q9HAW8); test: SAHA glucuronidation, wild-type UGT1A10
# T3 sequence (Q9HAW8 26-530): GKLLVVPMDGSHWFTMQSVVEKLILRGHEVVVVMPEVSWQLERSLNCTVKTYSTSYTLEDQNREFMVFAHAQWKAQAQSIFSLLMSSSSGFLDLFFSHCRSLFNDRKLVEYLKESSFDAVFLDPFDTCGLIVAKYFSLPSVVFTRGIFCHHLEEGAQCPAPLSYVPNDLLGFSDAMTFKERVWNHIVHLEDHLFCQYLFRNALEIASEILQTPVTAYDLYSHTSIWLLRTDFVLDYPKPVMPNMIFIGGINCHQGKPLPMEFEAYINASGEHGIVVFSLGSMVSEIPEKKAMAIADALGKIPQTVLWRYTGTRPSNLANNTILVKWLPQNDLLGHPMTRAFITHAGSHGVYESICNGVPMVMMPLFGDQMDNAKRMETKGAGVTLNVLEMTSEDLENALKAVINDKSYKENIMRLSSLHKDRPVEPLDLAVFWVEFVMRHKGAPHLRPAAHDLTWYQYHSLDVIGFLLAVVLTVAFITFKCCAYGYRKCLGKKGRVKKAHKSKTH
# [5] = target: T4, UGT2B11 (Homo sapiens, UniProt O75310); test: SAHA glucuronidation screen, UGT2B11-overexpressing cell homogenate; conditions: 400 μg UGT-overexpressing cell homogenate, 1-h incubation
# T4 sequence (O75310 22-529): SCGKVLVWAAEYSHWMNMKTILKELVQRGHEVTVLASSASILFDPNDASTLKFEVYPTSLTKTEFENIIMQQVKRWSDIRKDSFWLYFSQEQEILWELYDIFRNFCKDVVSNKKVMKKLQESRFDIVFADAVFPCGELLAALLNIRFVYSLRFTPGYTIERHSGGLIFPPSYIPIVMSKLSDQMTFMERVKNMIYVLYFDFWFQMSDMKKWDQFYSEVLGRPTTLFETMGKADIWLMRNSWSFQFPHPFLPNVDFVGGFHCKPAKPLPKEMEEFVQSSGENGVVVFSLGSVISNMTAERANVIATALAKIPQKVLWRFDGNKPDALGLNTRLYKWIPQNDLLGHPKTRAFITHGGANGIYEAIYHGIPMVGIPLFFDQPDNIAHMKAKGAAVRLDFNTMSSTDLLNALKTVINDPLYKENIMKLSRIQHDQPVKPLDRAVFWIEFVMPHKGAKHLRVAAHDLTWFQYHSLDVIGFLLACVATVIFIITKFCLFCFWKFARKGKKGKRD
# [6] = target: T5, UGT2B4 (Homo sapiens, UniProt P06133); test: SAHA glucuronidation screen, UGT2B4-overexpressing cell homogenate; conditions: 400 μg UGT-overexpressing cell homogenate, 1-h incubation
# T5 sequence (P06133 24-528): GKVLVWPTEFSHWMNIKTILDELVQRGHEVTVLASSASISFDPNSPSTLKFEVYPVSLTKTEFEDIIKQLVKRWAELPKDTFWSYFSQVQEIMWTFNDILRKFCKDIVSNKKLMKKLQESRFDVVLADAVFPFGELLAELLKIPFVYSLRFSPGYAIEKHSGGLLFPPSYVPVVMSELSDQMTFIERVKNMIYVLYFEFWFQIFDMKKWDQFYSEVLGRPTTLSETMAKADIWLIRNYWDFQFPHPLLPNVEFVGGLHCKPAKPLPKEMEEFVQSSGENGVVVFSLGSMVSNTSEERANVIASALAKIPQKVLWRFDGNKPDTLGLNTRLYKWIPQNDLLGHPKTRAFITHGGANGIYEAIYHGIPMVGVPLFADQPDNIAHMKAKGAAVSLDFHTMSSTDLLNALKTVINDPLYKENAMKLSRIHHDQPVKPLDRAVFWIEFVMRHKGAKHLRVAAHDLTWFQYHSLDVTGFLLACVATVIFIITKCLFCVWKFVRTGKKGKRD
# [7] = 400 μg UGT-overexpressing cell homogenate, 1-h incubation
smiles,measurement,setting,value
"O=C(CCCCCCC(=O)Nc1ccccc1)NO [SAHA, Suberoylanilide hydroxamic acid]",glucuronidation against SAHA (screen),[1]; [7],high levels of glucuronidation
same,Km at 1 h,"[1]; human, pH 7.5",2.7 ± 0.6 mM
same,glucuronidation against SAHA (screen),[2]; [7],high levels of glucuronidation
same,Km at 1 h,"[2]; human, pH 7.5",1.9 ± 0.1 mM
same,glucuronidation activity against SAHA,[3],significant levels of glucuronidation activity
same,glucuronidation against SAHA (screen),[4]; [7],high levels of glucuronidation
same,KM of UGT1A10 higher than that observed for UGT2B17,[4]; against SAHA,3 fold
same,Km at 1 h,"[4]; human, pH 7.5",1 ± 0.1 mM
same,glucuronidation activity against SAHA (screen),[5],No detectable glucuronidation activity
same,glucuronidation activity against SAHA (screen),[6],No detectable glucuronidation activity

# Reference: publication PMC2694132 (Cancer research, 2009)
